Test results: article PMC10373739, “The AKT inhibitor, MK-2206, attenuates ABCG2-mediated drug resistance in lung and colon cancer cells” (Frontiers in Pharmacology, 2023)
pEC50: −log10 of the molar value.

Biological target: T1, ABCG2 transporter (Homo sapiens, UniProt Q9UNQ0)
T1 sequence (Q9UNQ0 1-655): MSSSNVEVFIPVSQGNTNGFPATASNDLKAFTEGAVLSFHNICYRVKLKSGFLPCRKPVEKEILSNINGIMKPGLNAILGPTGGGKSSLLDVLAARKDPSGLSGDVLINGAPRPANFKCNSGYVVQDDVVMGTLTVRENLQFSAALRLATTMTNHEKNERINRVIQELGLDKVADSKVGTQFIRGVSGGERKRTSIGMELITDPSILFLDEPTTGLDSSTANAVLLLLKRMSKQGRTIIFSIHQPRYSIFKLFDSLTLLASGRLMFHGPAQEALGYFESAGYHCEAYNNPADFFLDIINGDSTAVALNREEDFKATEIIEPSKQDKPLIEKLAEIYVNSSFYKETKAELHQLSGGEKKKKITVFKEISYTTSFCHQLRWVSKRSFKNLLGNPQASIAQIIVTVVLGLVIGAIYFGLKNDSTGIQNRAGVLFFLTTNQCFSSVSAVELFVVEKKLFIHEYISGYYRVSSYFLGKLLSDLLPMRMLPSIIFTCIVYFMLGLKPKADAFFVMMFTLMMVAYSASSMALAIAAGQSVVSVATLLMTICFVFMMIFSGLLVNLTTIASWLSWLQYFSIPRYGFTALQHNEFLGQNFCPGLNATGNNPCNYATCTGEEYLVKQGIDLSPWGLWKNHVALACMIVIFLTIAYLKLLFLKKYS
Test: vanadate-sensitive ATPase assay (stimulation of basal activity) in ABCG2 membrane vesicles from High Five insect cells
Type: biochemical

Work on `NC1(c2ccc(-c3nc4ccn5c(=O)[nH]nc5c4cc3-c3ccccc3)cc2)CCC1` [MK-2206] yielded a pEC50 of 6.34.
